Measured values as given in patent US20230201217A1 (priority 2019, published 2023).

Columns and labels:
[1] = molecular target: T1, rat α3β4 nicotinic acetylcholine receptor (nAChR) (Rattus norvegicus, UniProt P04757+P12392); assay: cell-based
T1 construct: expressed in transfected cells; host or cells: HEK 293 (ATCC CRL1573), transient, Lipofectamine 2000

Sprague Dawley rats = assay: Modified Irwin test, pilot dose finding study, female rats; type: in vivo, rat; details: single oral dose 30-800 mg/kg
Procedure: Under the conditions of this study, the no-observed-effect level (NOEL) and no-observed-adverse-effect level (NOAEL) were considered to be 90 mg/kg and 400 mg/kg, respectively.

Pharmacokinetics in rats = type: in vivo, rat
Procedure: 18-MC is rapidly absorbed and distributed into the brain and fat tissues in rats dosed with 40 mg/kg p.o. or i.p. The estimated volume of distribution is 8 L/kg. 18-MC levels in fat were 4.2 μM and 2.5 μM at 2 hours and 24 hours, respectively. […] On oral administration, it appears that the major metabolites are either M4 or M5, depending on the animal species tested. M4 and M5 are the primary circulating drug species because they are present at proportions greater than 18-MC. […] In the animal species tested its half-life is less than 2 hours at lower doses. At high doses a long elimination phase is evident (ranging from 9 to 20 hours in rats). 18-MC is highly protein bound (95-98%).

cynomolgus monkeys = assay: 14-day nasogastric gavage GLP toxicity study in cynomolgus monkeys; type: in vivo, cynomolgus monkey; details: 14 days
Source text: Assessments of neurobehavioral effects and general toxicity were based on mortality, functional observational battery (FOB) evaluations, clinical observations, body weight, and body temperature; ophthalmoscopic, electrocardiographic examinations; and anatomic and clinical pathology. The anatomical pathology evaluations included histopathology of a full list of tissues from all animals and a comprehensive evaluation of the central nervous system (including selected peripheral nerves) utilizing whole body perfusion and special stains. Bone marrow smears from all animals were evaluated microscopically. Complete differentials and myeloid-erythroid (ME) ratios were performed. Toxicokinetic assessment was conducted for the test article and metabolites.

[2] = test system: polychromatic erythrocytes in mouse bone marrow; assay: Mouse bone marrow in vivo micronucleus assay; details: GLP, 50, 75, 120 mg/kg/day for 3 days
Procedure: Treatment resulted and clinical signs of lethargy and piloerection at doses of 200-400 mg/kg and in mortality of male and female ICR mice at doses of 300 and 400 mg/kg. The highest non-lethal dose was 250 mg/kg.
These doses were based upon prior toxicology data indicating higher doses were associated with mortality in this species. […] A positive control group received a single oral dose of 60 mg/kg cyclophosphamide on Day 2, the day prior to the scheduled euthanasia. Each group consisted of 6 males. Males only were used as no significant differences in response related to gender were expected based upon prior toxicology and toxicokinetic data. All animals were euthanized on Day 3, the day following the final dose and discarded following bone marrow collection.
All animals were observed twice daily for mortality and moribundity. Bone marrow collection for micronucleus evaluation was performed for 5 of the 6 animals in each group at the scheduled euthanasia (Day 3). All animals were discarded without necropsy. Bone marrow smears were prepared, and the coded slides were counted for polychromatic, normochromatic, and micronucleated polychromatic erythrocytes following the final bone marrow sample collection on Day 3.

CYP2C9 = CYP2C9 (Homo sapiens, UniProt P11712); details: recombinant enzyme
Procedure: Control incubations were performed for each assay with appropriate positive inhibitory controls.

[3] = test system: animal substance use models; details: i.p.; cited from earlier work

T1 sequence (P04757 26-499): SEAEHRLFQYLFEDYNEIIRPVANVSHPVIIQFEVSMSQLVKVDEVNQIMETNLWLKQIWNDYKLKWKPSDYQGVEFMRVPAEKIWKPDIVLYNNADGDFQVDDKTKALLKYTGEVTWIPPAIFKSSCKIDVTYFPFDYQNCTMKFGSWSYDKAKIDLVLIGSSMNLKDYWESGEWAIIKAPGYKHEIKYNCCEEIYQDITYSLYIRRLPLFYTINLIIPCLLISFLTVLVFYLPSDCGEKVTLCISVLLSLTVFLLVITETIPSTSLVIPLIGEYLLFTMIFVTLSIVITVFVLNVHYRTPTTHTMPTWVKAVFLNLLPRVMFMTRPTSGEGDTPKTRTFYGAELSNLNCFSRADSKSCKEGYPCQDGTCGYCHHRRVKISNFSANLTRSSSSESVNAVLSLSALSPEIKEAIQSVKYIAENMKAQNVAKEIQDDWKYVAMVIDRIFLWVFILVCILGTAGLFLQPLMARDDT
T1 sequence (P12392 21-495): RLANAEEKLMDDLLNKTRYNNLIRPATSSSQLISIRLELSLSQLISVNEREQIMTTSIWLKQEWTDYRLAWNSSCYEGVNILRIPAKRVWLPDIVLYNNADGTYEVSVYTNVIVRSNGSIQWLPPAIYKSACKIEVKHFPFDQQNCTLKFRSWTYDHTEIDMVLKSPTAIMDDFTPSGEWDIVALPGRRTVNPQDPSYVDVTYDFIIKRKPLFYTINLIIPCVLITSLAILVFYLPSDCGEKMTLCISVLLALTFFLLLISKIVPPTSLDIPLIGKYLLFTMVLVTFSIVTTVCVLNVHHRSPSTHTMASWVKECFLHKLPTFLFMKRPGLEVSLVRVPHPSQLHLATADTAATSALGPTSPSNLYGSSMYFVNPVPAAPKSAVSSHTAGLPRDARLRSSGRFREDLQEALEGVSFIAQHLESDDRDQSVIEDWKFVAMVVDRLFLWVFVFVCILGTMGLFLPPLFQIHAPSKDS
Chain of CYP2C9 (P11712 whole entry): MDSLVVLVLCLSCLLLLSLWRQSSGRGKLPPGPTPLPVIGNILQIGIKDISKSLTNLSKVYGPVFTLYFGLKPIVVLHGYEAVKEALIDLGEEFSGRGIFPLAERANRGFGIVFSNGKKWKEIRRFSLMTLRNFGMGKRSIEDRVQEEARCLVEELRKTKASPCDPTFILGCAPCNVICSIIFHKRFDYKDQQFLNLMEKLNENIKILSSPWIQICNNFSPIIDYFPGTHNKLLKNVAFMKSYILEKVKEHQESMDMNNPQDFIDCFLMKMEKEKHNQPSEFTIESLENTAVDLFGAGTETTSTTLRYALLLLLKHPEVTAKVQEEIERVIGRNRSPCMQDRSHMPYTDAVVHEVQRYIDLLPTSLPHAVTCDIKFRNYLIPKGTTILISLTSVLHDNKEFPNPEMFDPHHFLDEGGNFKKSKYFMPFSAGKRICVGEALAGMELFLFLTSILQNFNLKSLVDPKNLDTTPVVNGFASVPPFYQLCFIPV

In the case of COCC[C@H]1CC2CN3CCc4c([nH]c5ccccc45)[C@](C(=O)OC)(C2)[C@H]13 [18-MC, 18-methoxycoronaridine], the Ipeak [1] is reported as 50 ± 4% of ACh, the Iss [1] is reported as 34 ± 5% of peak and the τdecay [1] is reported as 298 ± 23 ms. The IC50 ([1]; read-out: IC50, inhibition of ACh-evoked currents) was 800 nM, the “no-observed-adverse-effect level (NOAEL)” value (Sprague Dawley rats) was 400 mg/kg and the “no-observed-effect level (NOEL)” value (Sprague Dawley rats) was 90 mg/kg. The “estimated volume of distribution” value (Pharmacokinetics in rats; 40 mg/kg p.o. or i.p.) was 8 L/kg, the “oral bioavailability for total drug substance (AUC of 18-MC and its metabolites)” value (Pharmacokinetics in rats; 60 mg/kg) was “about 25%” and the “18-MC level in fat” value (Pharmacokinetics in rats; 2 hours) was 4.2 µM. For the same compound, the “18-MC level in fat” value (Pharmacokinetics in rats; 24 hours) was 2.5 µM, the NOAEL (cynomolgus monkeys) was 50 mg/kg/day and the “bone marrow cytotoxicity and clastogenic activity” value [2] was “negative response”. For the same compound, the IC50 (CYP2C9) was 4100 nM and the “lowest dosage that significantly reduces drug self-administration” value [3] was ≥ 10 mg/kg.
